Experimental data: patent US4172134A, “Benzo [B]thienopyridines, process for their preparation and therapeutic compositions containing same” (Parcor, priority 1977, dated 1979)

How the values were obtained:
[1] = test system: A.D.P. induced blood-platelet aggregation; test: Determination of A.D.P. induced blood-platelet aggregation; assay type: in vivo; settings: Wistar rats, 100 mg/kg orally, 3 hours after treatment, 10 μM A.D.P. solution, vs reference group, groups of 20 rats; for inhibition at 100 mg/kg: Rattus norvegicus, po, read-out: Percent inhibition of blood-platelet aggregation, A.D.P.
Protocol: (§1) 1. Blood-platelet aggregation inhibiting activity
(§2) Blood is taken from the jugular vein of Wistar rats. From this citrated blood and after centrifugation, is reconstituted a plasma containing 600,000±20,000 blood-platelets per mm3 which will be used in all aggregation determinations.
(§3) 0.4 ml of plasma is placed in a siliconized tube provided with a magnet bar which is also siliconized. The tube is introduced into an aggregometer connected with an apparatus which records optical density variations. When light transmission has attained a stable value, 0.5 ml of a solution containing 10 μM A.D.P. (Adenosine-Di-Phosphate) are introduced into the tube.
(§4) Blood-platelet aggregation then produces an increase of light transmission followed by a decrease subsequent to the deaggregation phase.
(§5) The maximal optical density variation thus determined characterizes the intensity of the aggregation.
(§6) Different groups of 20 rats each are used, each group being orally administered a test derivative at a dosage of 100 mg/kg.

[2] = test system: collagen-induced blood-platelet aggregation; test: Determination of collagen-induced blood-platelet aggregation; assay type: in vivo; settings: Wistar rats, 100 mg/kg orally, 3 hours after treatment, collagen solution (bovine tendon extract), vs reference group, groups of 20 rats; for inhibition at 100 mg/kg: Rattus norvegicus, po, read-out: Percent inhibition of blood-platelet aggregation, Collagen
Protocol: as §1, §2, §3, §4, §5
The A.D.P. solution is substituted with a collagen solution (bovine tendon extract).
as §6

CC1C(c2ccccc2)c2sc3ccc(Cl)cc3c2CN1Cc1ccncc1 (centres unmarked) [Example 19, 8-Chloro-3-methyl-4-phenyl-2-(4-pyridyl)methyl-1,2,3,4,-tetrahydrobenzo(b)thieno[3,2-c]pyridine]
inhibition at 100 mg/kg [1]: 62.4% | inhibition at 100 mg/kg [2]: 91.9%

COc1cccc(CN2Cc3c(sc4ccccc34)C(c3ccccc3)C2C)c1 (centres unmarked) [Example 9, 3-Methyl-P2-m.methoxybenzyl-4-phenyl-1,2,3,4-tetrahydro-benzo(b)thieno[3,2-c]pyridine]
inhibition at 100 mg/kg [1]: 61.8% | inhibition at 100 mg/kg [2]: 91.2%

COC(=O)c1ccccc1CN1Cc2c(sc3ccc(Cl)cc23)C(c2ccccc2)C1C (centres unmarked) [Example 13, 8-Chloro-3-methyl-2-o.methoxycarbonylbenzyl-4-phenyl-1,2,3,4-tetrahydro-benzo(b)thieno[3,2-c]pyridine]
inhibition at 100 mg/kg [1]: 62.1% | inhibition at 100 mg/kg [2]: 95%

CC1NCc2c(sc3ccccc23)C1c1ccccc1 (centres unmarked) [Example 2, 3-Methyl-4-phenyl-1,2,3,4-tetrahydro-benzo(b)-thieno[3,2-c]-pyridine]
inhibition at 100 mg/kg [1]: 61.7% | inhibition at 100 mg/kg [2]: 93.8%

CC1C(c2ccccc2)c2sc3ccc(Cl)cc3c2CN1Cc1ccccc1Cl (centres unmarked) [Example 6, 8-Chloro-2-o-chlorobenzyl-3-methyl-4-phenyl-1,2,3,4-tetrahydro-benzo(b)thieno[3,2-c]pyridine]
inhibition at 100 mg/kg [1]: 61.2% | inhibition at 100 mg/kg [2]: 94.4%

CC1NCc2c(sc3ccc(Cl)cc23)C1c1ccccc1 (centres unmarked) [Example 1, 8-Chloro-3-methyl-4-phenyl-1,2,3,4-tetrahydro-benzo(b)-thieno[3,2-c]pyridine]
inhibition at 100 mg/kg [1]: 62.1% | inhibition at 100 mg/kg [2]: 91.4%

Clc1ccc2sc3c(c2c1)CNCC3c1ccccc1 (centres unmarked) [Example 3, 8-Chloro-1-phenyl-1,2,3,4-tetrahydro-benzo(b)thieno[3,2-c]-pyridine]
inhibition at 100 mg/kg [1]: 62.9% | inhibition at 100 mg/kg [2]: 90.5%

N#Cc1ccccc1CN1Cc2c(sc3ccccc23)C(c2ccccc2)C1 (centres unmarked) [Example 12, 2-o.Cyanobenzyl-4-phenyl-1,2,3,4-tetrahydro-benzo(b)thieno-[3,2-c]pyridine]
inhibition at 100 mg/kg [1]: 61.3% | inhibition at 100 mg/kg [2]: 92.2%

CC1C(c2ccccc2)c2sc3ccc(Cl)cc3c2CN1Cc1ccccc1C(=O)O (centres unmarked) [Example 14, 2-o.Carboxybenzyl-8-chloro-3-methyl-4-phenyl-1,2,3,4-tetrahydro-benzo(b)thieno[3,2-c]pyridine]
inhibition at 100 mg/kg [1]: 60.6% | inhibition at 100 mg/kg [2]: 93.8%

Cc1ccc(N2Cc3c(sc4ccccc34)C(c3ccccc3)C2)cc1 (centres unmarked) [Example 8, 4-Phenyl-2-p.tolyl-1,2,3,4-tetrahydro-benzo(b)-thieno[3,2-c]-pyridine]
Percent inhibition of blood-platelet aggregation, A.D.P. [1]: 61.4% | Percent inhibition of blood-platelet aggregation, Collagen [2]: 90.6%

CC1C(c2ccccc2)c2sc3ccccc3c2CN1CCc1ccccc1 (centres unmarked) [Example 16, 3-Methyl-2-phenethyl-4-phenyl-1,2,3,4-tetrahydro-benzo(b)-thieno[3,2-c]pyridine]
inhibition at 100 mg/kg [1]: 62.7% | inhibition at 100 mg/kg [2]: 93.2%

CC1C(c2ccccc2)c2sc3ccccc3c2CN1Cc1ccccn1 (centres unmarked) [Example 18, 3-Methyl-4-phenyl-2-(2-pyridyl)methyl-1,2,3,4-tetrahydro-benzo(b)thieno[3,2-c]pyridine]
inhibition at 100 mg/kg [1]: 61.3% | inhibition at 100 mg/kg [2]: 91.7%

CC1C(c2ccccc2)c2sc3ccc(Cl)cc3c2CN1Cc1cccnc1 (centres unmarked) [Example 17, 8-Chloro-3-methyl-4-phenyl-2-(3-pyridyl)methyl-1,2,3,4-tetrahydro-benzo(b)thieno[3,2-c]pyridine]
inhibition at 100 mg/kg [1]: 63.5% | inhibition at 100 mg/kg [2]: 90.4%

CCCCN1Cc2c(sc3ccc(Cl)cc23)C(c2ccccc2)C1C (centres unmarked) [Example 15, 2-Butyl-8-chloro-3-methyl-4-phenyl-1,2,3,4-tetrahydro-benzo(b)thieno[3,2-c]pyridine]
inhibition at 100 mg/kg [1]: 60.1% | inhibition at 100 mg/kg [2]: 92.6%

O=[N+]([O-])c1ccccc1CN1Cc2c(sc3ccc(Cl)cc23)C(c2ccccc2)C1 (centres unmarked) [Example 11, 8-Chloro-2-o.nitrobenzyl-4-phenyl-1,2,3,4-tetrahydro-benzo(b)thieno[3,2-c]pyridine]
inhibition at 100 mg/kg [1]: 62.5% | inhibition at 100 mg/kg [2]: 92.7%

c1ccc(C2CNCc3c2sc2ccccc32)cc1 (centres unmarked) [Example 4, 4-Phenyl-1,2,3,4-tetrahydro-benzo(b)thieno[3,2-c]pyridine]
inhibition at 100 mg/kg [1]: 61.5% | inhibition at 100 mg/kg [2]: 90.8%

CC1C(c2ccccc2)c2sc3ccc(Cl)cc3c2CN1C (centres unmarked) [Example 5, 8-Chloro-2,3-dimethyl-4-phenyl-1,2,3,4-tetrahydro-benzo(b)-thieno[3,2-c]pyridine]
inhibition at 100 mg/kg [1]: 60.8% | inhibition at 100 mg/kg [2]: 91.2%

CC1C(c2ccccc2)c2sc3ccc(Cl)cc3c2CN1Cc1ccccc1 (centres unmarked) [Example 7, 2-Benzyl-8-chloro-3-methyl-4-phenyl-1,2,3,4-tetrahydro-benzo(b)thieno[3,2-c]pyridine]
inhibition at 100 mg/kg [1]: 63% | inhibition at 100 mg/kg [2]: 95.1%

COc1cc(CN2Cc3c(sc4ccc(Cl)cc34)C(c3ccccc3)C2C)cc(OC)c1OC (centres unmarked) [Example 10, 8-Chloro-2-(3,4,5-trimethoxy-benzyl)-3-methyl-4-phenyl-1,2,3,4-tetrahydro-benzo(b)thieno[3,2-c]pyridine]
inhibition at 100 mg/kg [1]: 60.2% | inhibition at 100 mg/kg [2]: 94.5%
